The conditions of series [1]: cited from earlier work.
A short description of series [2]: Solubility of RWJ-416457 in hydroxypropyl-β-cyclodextrin and sulfobutylether-β-cyclodextrin solutions (HPLC). It counts as physicochemical. As to the method: Various liposomal formulations were prepared to perform supporting and illustrative studies. […] The solubility of the drug in the cyclodextrin solutions was determined.
The solubility of an antimicrobial oxazolidinone drug identified as RWJ-416457 in 40 w/v % hydroxylpropyl-β-cyclodextrin and in 20 w/v % sulfobutylether-β-cyclodextrin under various conditions of pH, temperature, and incubation time was determined as follows. About 15 mgs of drug was added to 5 mL of each cyclodextrin solution followed by incubation under one of three conditions: (1) with stirring at 45° C. for 2 hours; (2) with stirring at 45° C. for 2 hours followed by stirring at room temperature (25° C.) for 3 days; or (3) with stirring at room temperature (25° C.) for 3 days. After incubation, any non-solubilized drug crystals were removed either by centrifugation using a bench top centrifuge at 3000 rpm or by filtration using a hand-held syringe with a filter with 0.2 μm pore size. The drug concentration of the supernatant or the filtrate was then determined by high performance liquid chromatography (HPLC).

Series [3] is described as follows: Drug concentration of filtered drug/cyclodextrin hydration solutions (HPLC). Format: physicochemical. The following applies: for drug concentration of filtered cyclodextrin solution: 10 mM histidine, 15 mM NaCl, pH 6.8, incubated 45° C. for 2 hours; for final drug concentration assayed by HPLC: 50 w/v % hydroxypropyl-β-cyclodextrin. As to the method: A similar solution containing 30% cyclodextrin was prepared by dissolving 30 g of hydroxypropyl-β-cyclodextrin in a 100 mL of water. The solution also contained 10 mM histidine and 15 mM NaCl. The final osmolality was 451 mOsm/kg (Wescor Osmometer) and the pH was 6.8. Drug (RWJ-425457) was added to the cyclodextrin solution, incubated (45° C. for 2 hours), and filtered, to yield a drug concentration of 9.9 mg/mL.
A similar solution containing 20% cyclodextrin was prepared by dissolving 20 g of hydroxypropyl-β-cyclodextrin in a 100 mL of buffer (10 mM histidine and 15 mM NaCl). The final osmolality was 199 mOsm/kg (Wescor Osmometer) and the pH was 6.8. Drug (RWJ-425457) was added to the cyclodextrin solution, incubated (45° C. for 2 hours) and filtered, to yield a drug concentration of 4.8 mg/mL.
A liposome formulation with no cholesterol, formulation no. 11, was also prepared as follows. A lipid mixture of HSPC/mPEG-DSPE 95:5 mol/mol (11.3 g HSPC and 2.1 g mPEG-DSPE) was solubilized in 10 mL ethanol at about 65 ° C. A 50% hydroxypropyl-β-cyclodextrin solution was made by solubilizing 50 g of the cyclodextrin in a total volume of 100 mL water. The osmolality was 720 mOsm/kg and the pH was 7.4. In a separate container 1.004 g of drug (RWJ416457) was placed in 100 mL of the 50 w/v % cyclodextrin solution. The mixture was stirred for 1 hour at 45° C. and then 3 hours at room temperature followed by filtration to removw any un-dissolved drug in the solution. The final drug concentration assayed by HPLC was 7.58 mg/mL and the osmolality of the hydration medium was 771 mOsm/kg. The lipid solution was then mixed with 90 mL of the drug/cyclodextrin solution (pre-warmed to 65° C.) followed by stirring at 65° C. for 1 hour to form a suspension of liposomes, identified as formulation no. 11.
A 50% hydroxypropyl-β-cyclodextrin solution was made by solubilizing 50.0 g of the cyclodextrin in a total volume of 100 mL water. The final osmolality was 720 mOsm/kg (Wescor Osmometer) and the pH was 7.4. In a separate container 1.004 g of drug (RWJ416457) was placed in 100 mL of the 50 w/v % cyclodextrin solution. The mixture was stirred for 4 hours at room temperature followed by filtration to remove any drug in the external solution. The final drug concentration assayed by HPLC was 7.58 mg/mL and osmolality was 771 mOsm/kg.

As for 2-Hydroxypropyl-β-cyclodextrin, the “Solubility in water” value in series [1] was over 600000 µg/mL.

With 2-Hydroxypropyl-γ-cyclodextrin, the “Solubility in water” value in series [1] was over 500000 µg/mL.

Turning to `CC(=O)NC[C@H]1CN(c2ccc(N3Cc4cn(C)nc4C3)c(F)c2)C(=O)O1` [RWJ-416457], the “Solubility of RWJ-416457” value in series [2] (Sample 1, pH 8.54, HP-β-CD 40%, 3 days RT, Filter) worked out at 8130 µg/mL; in series [2] (Sample 2, pH 8.54, HP-β-CD 40%, 45° C. 2 hrs + 3 days RT, Filter), 9460 µg/mL; in series [2] (Sample 2, pH 8.54, HP-β-CD 40%, 45° C. 2 hrs, Centrifuge), 9370 µg/mL; in series [2] (Sample 2, pH 8.54, HP-β-CD 40%, 45° C. 2 hrs, Filter), 9260 µg/mL; in series [2] (Sample 3, pH 3.21, HP-β-CD 40%, 3 days RT, Filter) it was 7600 µg/mL; in series [2] (Sample 4, pH 3.21, HP-β-CD 40%, 45° C. 2 hrs + 3 days RT, Filter) it was 9080 µg/mL. The “Solubility of RWJ-416457” value in series [2] (Sample 4, pH 3.21, HP-β-CD 40%, 45° C. 2 hrs, Centrifuge) was determined as 9230 µg/mL; in series [2] (Sample 4, pH 3.21, HP-β-CD 40%, 45° C. 2 hrs, Filter), 9160 µg/mL; in series [2] (Sample 5, pH 4.58, HP-β-CD 40%, 3 days RT, Filter) it was 7210 µg/mL; in series [2] (Sample 6, pH 4.58, HP-β-CD 40%, 45° C. 2 hrs + 3 days RT, Filter), 9100 µg/mL; in series [2] (Sample 6, pH 4.58, HP-β-CD 40%, 45° C. 2 hrs, Centrifuge) it was 9170 µg/mL; in series [2] (Sample 6, pH 4.58, HP-β-CD 40%, 45° C. 2 hrs, Filter), 9160 µg/mL. In addition, the “Solubility of RWJ-416457” value in series [2] (Sample 7, pH 6.94, SBE-β-CD 20%, 45° C. 2 hrs + 3 days RT, Filter) came out at 4450 µg/mL; in series [2] (Sample 7, pH 6.94, SBE-β-CD 20%, 45° C. 2 hrs, Centrifuge), 4750 µg/mL; in series [2] (Sample 7, pH 6.94, SBE-β-CD 20%, 45° C. 2 hrs, Filter), 4550 µg/mL. The results for the drug solubility result in series [2] (in 20% sulfobutylether-β-cyclodextrin (summary of Example 1A)) and in series [2] (in 40 w/v % hydroxypropyl-β-cyclodextrin (summary of Example 1A)) were “above 4.5 mg/mL” and “above 9 mg/mL”, respectively. Moreover, the solubility result was “about 4.5 mg/mL” in series [2] (in 20 w/v % sulfobutylether-β-cyclodextrin at 45° C.), “about 9.1 mg/mL” in series [2] (in 40 w/v % hydroxypropyl-β-cyclodextrin at 45° C.) and “about 7.6 mg/mL” in series [2] (in 40 w/v % hydroxypropyl-β-cyclodextrin at room temperature). For the same molecule, the figures for the “drug concentration of filtered cyclodextrin solution” value in series [3] (20% hydroxypropyl-β-cyclodextrin) and in series [3] (30% hydroxypropyl-β-cyclodextrin) were 4800 µg/mL and 9900 µg/mL, respectively. Besides, the “final drug concentration assayed by HPLC” value in series [3] (stirred 1 hour at 45° C. then 3 hours at room temperature) and in series [3] (stirred 4 hours at room temperature) was 7.58 mg/mL each time.

As for `OC[C@H]1O[C@@H]2O[C@H]3[C@H](O)[C@@H](O)[C@@H](O[C@H]4[C@H](O)[C@@H](O)[C@@H](O[C@H]5[C@H](O)[C@@H](O)[C@@H](O[C@H]6[C@H](O)[C@@H](O)[C@@H](O[C@H]7[C@H](O)[C@@H](O)[C@@H](O[C@H]8[C@H](O)[C@@H](O)[C@@H](O[C@H]9[C@H](O)[C@@H](O)[C@@H](O[C@H]%10[C@H](O)[C@@H](O)[C@@H](O[C@H]1[C@H](O)[C@H]2O)O[C@@H]%10CO)O[C@@H]9CO)O[C@@H]8CO)O[C@@H]7CO)O[C@@H]6CO)O[C@@H]5CO)O[C@@H]4CO)O[C@@H]3CO` [δ-cyclodextrin], the “water solubility (at 25° C., g/100 mL)” value in series [1] (at 25° C.) is recorded as 8.19 g/100 mL.

Consider Randomly Methylated β-cyclodextrin, for which the “Solubility in water” value in series [1] is over 500000 µg/mL.

As for “β-Cyclodextrin sulfobutyl ether sodium salt”, the “Solubility in water” value in series [1] is over 500000 µg/mL.

The values above are taken from patent US20070014845A1, “Liposomal delivery vehicle for hydrophobic drugs” (priority 2005, published 2007).
